PMC8330957 (Nature genetics, 2020)
Entries after “also recorded” stand apart in the source; their conditions may differ.

What was measured:
CUTLL1 cells = test: RT-qPCR of H3K27me3-marked genes after UNC1999 treatment, CUTLL1; type: cell-based, human; settings: 5 μM UNC1999, three days, three independent experiments
[1] = tested on: BAHCC1 (chromatin-bound), 293 cells; test: Cell fractionation and immunoblotting of chromatin-bound BAHCC1; type: cell-based; settings: immunoblotting after cell fractionation, UNC1999 versus DMSO
[2] = tested on: 3×Flag-BAHCC1 at TSS of target genes, JURKAT cells; test: Flag ChIP-qPCR of BAHCC1 binding to target genes; type: cell-based, human; settings: UNC1999 versus DMSO, three independent experiments
JURKAT cells [3] = test: RT-qPCR of H3K27me3-marked genes after UNC1999 treatment, JURKAT; type: cell-based, human; settings: 5 μM UNC1999, three days, three independent experiments
JURKAT cells [4] = test: RNA-seq of JURKAT cells treated with UNC1999; type: cell-based, human; settings: three-day treatment with 5 μM UNC1999

CCCc1cc(C)[nH]c(=O)c1CNC(=O)c1cc(-c2ccc(N3CCN(C(C)C)CC3)nc2)cc2c1cnn2C(C)C [UNC1999]
expression of examined H3K27me3-marked genes (CUTLL1 cells): re-activation | overall BAHCC1 binding to chromatin [1]: impaired | BAHCC1 binding to its target genes [2]: significantly reduced | expression of examined H3K27me3-marked genes (JURKAT cells [3]): re-activation | overlap of UNC1999-derepressed DEGs with those caused by BAHCC1 loss (JURKAT cells [4]): significant overlapping; also recorded: significantly overlapped
